Converted amounts (≈) assume the structure as drawn.

This note sets out measurements from ChEMBL document CHEMBL1149970, “Novel dithiocarbamate carbapenems1 with anti-MRSA activity” (Bioorg Med Chem Lett, 1997).

The target of data set [1] is T1, Dipeptidase 1 (Sus scrofa) (UniProt P22412).
T1 sequence (whole entry): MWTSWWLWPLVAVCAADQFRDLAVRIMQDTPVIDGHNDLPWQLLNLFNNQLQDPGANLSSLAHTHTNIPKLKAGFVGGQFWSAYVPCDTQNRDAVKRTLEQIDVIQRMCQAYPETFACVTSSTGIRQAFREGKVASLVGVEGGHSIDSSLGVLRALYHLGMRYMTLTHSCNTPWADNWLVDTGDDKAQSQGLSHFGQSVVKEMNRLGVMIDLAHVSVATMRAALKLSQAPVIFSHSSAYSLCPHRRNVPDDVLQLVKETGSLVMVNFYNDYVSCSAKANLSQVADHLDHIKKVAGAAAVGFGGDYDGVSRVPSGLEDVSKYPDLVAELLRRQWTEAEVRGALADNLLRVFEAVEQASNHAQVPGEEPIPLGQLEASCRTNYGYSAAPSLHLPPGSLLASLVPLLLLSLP
The experiment in a line: Relative rate of hydrolysis of porcine renal dehydropeptidase-I (DHP-I) to imipenem. It counts as functional.

Data set [2] concerns Staphylococcus epidermidis. As to the kind of experiment: In vitro antibacterial activity against Staphylococcus epidermidis MB5181a organism. It counts as functional. The following applies: Staphylococcus epidermidis; read-out: MIC.
In data set [3] the test system is Staphylococcus aureus. The experiment in a line: In vitro antibacterial activity against staphylococcus aureus 209P NIHJ JC1 organism. Format: functional.
The test system of data set [4] is Staphylococcus aureus. As to the kind of experiment: In vitro antibacterial activity against staphylococcus aureus BB6294 organism (Methicillin-resistant strain). It counts as functional.
For data set [5], the system named is Staphylococcus aureus. As to the kind of experiment: In vitro antibacterial activity against staphylococcus aureus CSa1009 (Methicillin-resistant strain and b beta-Lactamase producing strain). It counts as functional.
In the next data set the test system is Enterococcus faecalis. The experiment in a line: In vitro antibacterial activity against Enterococcus faecalis MB4996 organism. Format: functional.
A further data set has as its system Escherichia coli. The experiment in a line: In vitro antibacterial activity against Escherichia coli NIHJ JC2 organism. It counts as functional.
Another data set deals with Pseudomonas aeruginosa. As to the kind of experiment: In vitro antibacterial activity against Pseudomonas aeruginosa MB5002 organism. It counts as functional.
A short description of data set [6]: Compound was measured for binding rate for human serum at a carbapenem concentration of 10 ug/mL. Format: ADME. The following applies: read-out: Protein binding (converted).
Data set [7] addresses T1, Dipeptidase 1 (Sus scrofa). As to the kind of experiment: Compound was measured for DHP-I susceptibility. Format: functional.
The species entered for a further data set is Mus musculus. As to the kind of experiment: Compound was measured for binding rate for mouse serum at a carbapenem concentration of 10 ug/mL. Format: functional.
Data set [8] can be described thus: PBP-2'' affinity was determined by the competition assay with [14C]benzylpenicillin using membrane isolated from MRSA BB6294 strain. It counts as functional, Staphylococcus aureus.
A further data set concerns Rattus norvegicus. The experiment in a line: Epileptogenicity of compound was measured at 100 ug/rat head by the rat intraventricular assay; 0/5. It counts as functional, Cerebral ventricle.
The test system of data set [9] is Staphylococcus aureus. The experiment in a line: Compound was tested in vivo for its anti-methicillin-resistant staphylococcus aureus(MRSA). Format: functional.
In data set [10] the test system is Staphylococcus aureus. As to the kind of experiment: Compound was tested in vitro for its anti-methicillin-resistant staphylococcus aureus(MRSA); 3.13-6.25. It counts as functional.

Turning to `C[C@@H](O)[C@H]1C(=O)N2C(C(=O)O)=C(SC(=S)N3CCCC3)C[C@H]12`, the DHP-I susceptibility in data set [1] was found to be 11.7. Also, the minimum inhibitory concentration (MIC) (as a rule, the smallest concentration in the dilution series that meets the test's criterion for growth inhibition) in [2] turned out to be 12.5 µg/mL (≈ 36.5 µM); against Staphylococcus aureus [3], 0.025 µg/mL (≈ 0.073 µM); in the data set with Staphylococcus aureus [4] it was 6.25 µg/mL (≈ 18.3 µM); in the data set on Staphylococcus aureus [5] it was 25 µg/mL (≈ 73 µM).
In turn, `CCCN(C)C(=S)SC1=C(C(=O)O)N2C(=O)[C@H]([C@@H](C)O)[C@H]2[C@H]1C` yielded a DHP-I susceptibility in [1] of 2.71. Besides, the minimal inhibitory concentration (MIC) in the data set on Enterococcus faecalis turned out to be 6.25 µg/mL (≈ 17.4 µM); against Escherichia coli, 25 µg/mL (≈ 69.7 µM); against Pseudomonas aeruginosa, 25 µg/mL (≈ 69.7 µM); in data set [2] it was 3.13 µg/mL (≈ 8.73 µM); with Staphylococcus aureus [3], 0.025 µg/mL (≈ 0.0697 µM); in the data set on Staphylococcus aureus [4], 3.13 µg/mL (≈ 8.73 µM). In addition, 3.13 µg/mL (≈ 8.73 µM) was the least that counted as inhibitory in the data set with Staphylococcus aureus [5] (MIC).
On to `CCN(CCO)C(=S)SC1=C(C(=O)O)N2C(=O)[C@H]([C@@H](C)O)[C@H]2[C@H]1C`, for which the DHP-I susceptibility in data set [1] stood at 2.38. Moreover, the MIC in the data set with Enterococcus faecalis is 6.25 µg/mL (≈ 16.7 µM); against Escherichia coli, 6.25 µg/mL (≈ 16.7 µM); against Pseudomonas aeruginosa, > 25 µg/mL; in [2], 3.13 µg/mL (≈ 8.36 µM); with Staphylococcus aureus [3] it was 0.025 µg/mL (≈ 0.0668 µM); with Staphylococcus aureus [4], 6.25 µg/mL (≈ 16.7 µM). Further, inhibition of growth against Staphylococcus aureus [5] (MIC) required 6.25 µg/mL (≈ 16.7 µM).
Regarding `C[C@@H](O)[C@H]1C(=O)N2C(C(=O)O)=C(SC(=S)N(C)C)[C@H](C)[C@H]12`, the fraction unbound at 10 ug/mL in [6] is 0.12. Further, the DHP-I susceptibility in [1] and in data set [7] was 2.12 each time. The minimum inhibitory concentration (MIC) was 12.5 µg/mL (≈ 37.8 µM) in the data set with Enterococcus faecalis; 6.25 µg/mL (≈ 18.9 µM) against Escherichia coli; 25 µg/mL (≈ 75.7 µM) in the data set on Pseudomonas aeruginosa; 6.25 µg/mL (≈ 18.9 µM) in data set [2]; 0.012 µg/mL (≈ 0.0363 µM) with Staphylococcus aureus [3]; 3.13 µg/mL (≈ 9.47 µM) in the data set with Staphylococcus aureus [4]. Moreover, the MIC in the data set on Staphylococcus aureus [5] is 6.25 µg/mL (≈ 18.9 µM); against Staphylococcus aureus [10] it was 4.59 µg/mL (≈ 13.9 µM). The molecule further showed a PPB in the data set filed under Mus musculus of 69%. Further, the half-inhibitory concentration (IC50) (as a rule, the concentration that inhibits the measured activity by half) in data set [8] was determined as 9.6 µg/mL (≈ 29.1 µM). The Epileptogenicity in the data set with Rattus norvegicus is 0. Besides, the 50% effective dose (ED50) (commonly the dose at which the effect has come halfway, by size or by number of responders) in the data set with Staphylococcus aureus [9] turned out to be 5.91 mg/kg.
Consider `C[C@@H](O)[C@H]1C(=O)N2C(C(=O)O)=C(SC(=S)N3CCC3)[C@H](C)[C@H]12`, for which, in data set [1], the DHP-I susceptibility came to 3.03. Further, the minimum inhibitory concentration (MIC) against Enterococcus faecalis was 6.25 µg/mL (≈ 18.3 µM); against Escherichia coli, 3.13 µg/mL (≈ 9.14 µM); against Pseudomonas aeruginosa, > 25 µg/mL; in data set [2], 6.25 µg/mL (≈ 18.3 µM); against Staphylococcus aureus [3] it was 0.025 µg/mL (≈ 0.073 µM); against Staphylococcus aureus [4], 3.13 µg/mL (≈ 9.14 µM). Besides, it took 6.25 µg/mL (≈ 18.3 µM) to inhibit growth against Staphylococcus aureus [5] (MIC).
In data set [1], `CCN(C)C(=S)SC1=C(C(=O)O)N2C(=O)[C@H]([C@@H](C)O)[C@H]2[C@H]1C` gave a DHP-I susceptibility of 2.26. The MIC was 6.25 µg/mL (≈ 18.1 µM) in the data set on Enterococcus faecalis; 6.25 µg/mL (≈ 18.1 µM) in the data set with Escherichia coli; > 25 µg/mL in the data set with Pseudomonas aeruginosa; 3.13 µg/mL (≈ 9.09 µM) in [2]; 0.025 µg/mL (≈ 0.0726 µM) against Staphylococcus aureus [3]; 3.13 µg/mL (≈ 9.09 µM) in the data set on Staphylococcus aureus [4]. In addition, in the data set with Staphylococcus aureus [5], the lowest concentration to inhibit growth (MIC) was 3.13 µg/mL (≈ 9.09 µM).
`C[C@@H](O)[C@H]1C(=O)N2C(C(=O)O)=C(SC(=S)N3CCCCCC3)[C@H](C)[C@H]12` had a DHP-I susceptibility in [1] of 3.09. The MIC was 6.25 µg/mL (≈ 16.3 µM) against Enterococcus faecalis; > 25 µg/mL against Escherichia coli; > 25 µg/mL in the data set with Pseudomonas aeruginosa; 1.56 µg/mL (≈ 4.06 µM) in data set [2]; 0.012 µg/mL (≈ 0.0312 µM) against Staphylococcus aureus [3]; 1.56 µg/mL (≈ 4.06 µM) against Staphylococcus aureus [4]. This molecule yielded an MIC against Staphylococcus aureus [5] of 1.56 µg/mL (≈ 4.06 µM).
`C[C@@H](O)[C@H]1C(=O)N2C(C(=O)O)=C(SC(=S)N3CCC(O)CC3)[C@H](C)[C@H]12` yielded a DHP-I susceptibility in [1] of 2.23. Moreover, the minimal inhibitory concentration (MIC) is 6.25 µg/mL (≈ 16.2 µM) against Enterococcus faecalis; 3.13 µg/mL (≈ 8.1 µM) in the data set with Escherichia coli; > 25 µg/mL against Pseudomonas aeruginosa; 6.25 µg/mL (≈ 16.2 µM) in data set [2]; 0.025 µg/mL (≈ 0.0647 µM) in the data set with Staphylococcus aureus [3]; 6.25 µg/mL (≈ 16.2 µM) against Staphylococcus aureus [4]. In addition, the MIC in the data set on Staphylococcus aureus [5] is 6.25 µg/mL (≈ 16.2 µM).
As to `CCN(CC)C(=S)SC1=C(C(=O)O)N2C(=O)[C@H]([C@@H](C)O)[C@H]2[C@H]1C`, the DHP-I susceptibility in data set [1] is 2.51. The MIC with Enterococcus faecalis was 12.5 µg/mL (≈ 34.9 µM); with Escherichia coli it was 25 µg/mL (≈ 69.7 µM); against Pseudomonas aeruginosa, 25 µg/mL (≈ 69.7 µM); in [2], 3.13 µg/mL (≈ 8.73 µM); against Staphylococcus aureus [3], 0.025 µg/mL (≈ 0.0697 µM); in the data set on Staphylococcus aureus [4] it was 3.13 µg/mL (≈ 8.73 µM). Besides, inhibition of growth with Staphylococcus aureus [5] (MIC) required 3.13 µg/mL (≈ 8.73 µM).
Consider `C[C@@H](O)[C@H]1C(=O)N2C(C(=O)O)=C(SC(=S)N(C)c3ccccc3)[C@H](C)[C@H]12`, for which the DHP-I susceptibility in data set [1] worked out at 2.29. Moreover, the MIC against Enterococcus faecalis is 6.25 µg/mL (≈ 15.9 µM); with Escherichia coli, > 25 µg/mL; in the data set on Pseudomonas aeruginosa, > 25 µg/mL; in data set [2] it was 1.56 µg/mL (≈ 3.97 µM); against Staphylococcus aureus [3] it was 0.05 µg/mL (≈ 0.127 µM); in the data set on Staphylococcus aureus [4], 1.56 µg/mL (≈ 3.97 µM). Also, it took 3.13 µg/mL (≈ 7.97 µM) to inhibit growth with Staphylococcus aureus [5] (MIC).
